The target of the first assay is Human His6-CBX7 (Homo sapiens (Human), UniProt O95931). Put plainly: CBX7 AlphaScreen assay (binding of CBX7 chromodomain to H3K27me3 peptide). The conditions noted are these: average; His6-CBX7 / biotinylated-H3K27me3; read-out: AVG CBX7 Alpha IC50. The source says:
A biochemical assay was developed based on nanoparticle AlphaScreen assay to monitor the binding of recombinant CBX chromodomain (CBX7) to a methylated peptide (H3K27me3).
The primary assay uses recombinant CBX chromodomain and synthetic, trimethylated H3 histone tail peptide. When CBX/histone tail-binding occurs, AlphaScreen beads are brought in close proximity, resulting in singlet molecular oxygen transfer and production of a luminescent signal. Assay positives inhibiting the binding interaction are therefore expected to prevent complex formation, diminishing signal intensity. The AlphaScreen technology features an anti-Stokes shift in detection: due to energy transfer between beads by singlet oxygen and internal chemical reactions within the acceptor bead, the emission wavelength is blue-shifted relative to the excitation wavelength, which is impossible in traditional fluorescent assays. The relatively long path length of 200 nm that singlet molecular oxygen can travel enables reporting on full protein complexes and not just single target binding. […] Neither the small molecules being tested nor the target protein, CBX7, need to be chemically, conformationally, or behaviorally altered by tethering them to a surface or reporter that may decrease physiological relevance and beget screening artifacts. The primary assay monitors binding of the chromodomain of CBX7 to a histone tail containing a trimethylated lysine at K27, the biologically relevant interaction through which PRC binds to chromatin to repress transcription. This is a robust proximity-based assay that utilizes AlphaScreen technology (PerkinElmer). The assay consists of His6-CBX7 bound to a Ni^++ acceptor bead and the biotinylated histone tail bound to a streptavadin donor bead. Upon CBX7/H3K27me3 binding, the steptavidin bead comes into proximity with the Ni^++ bead to luminesce upon light excitation ([…]; see below).
The protocol for the CBX7 AlphaScreen was as follows: a standard alpha buffer (50 mM HEPES, 150 mM NaCl, 0.1% w/v BSA, 0.01% w/v Tween20) at pH 8.0 and make up two stock solutions at 2× final concentration in the alpha buffer. Solution A contains Human His6-CBX7 is used with biotinylated-H3K27me3 (residues 20-34), at 100 nM and 50 nM respectively. Solution B contains 20 nM streptavidin donor beads and 20 nM nickel acceptor beads. For 384 well assay formats, 10 uL of solution A is added to each well of the assay plate and the plate is spun at 1000 rpm for 30 seconds. 100 nL of experimental compounds from stock plates are delivered by robotic pin transfer using a Janus Workstation (PerkinElmer), allowing the compounds to interact with CBX7 binding prior to assay measurement, followed by another spin and an incubation room temperature. Finally, 10 uL of solution B is added to each well, the plate is spun again and then incubated at room temperature. AlphaScreen measurements are performed on an Envision 2104 (PerkinElmer) utilizing the manufacturer's protocol that has the correct excitation and emission wavelengths, cutoff filters, delay time, etc. A crosstalk calculation is also done through the Envision software to correct for luminescence for adjacent wells while reading the plate. The signal is then normalized to DMSO control wells on the compound plate prior to creation of the IC50 curves.
(In general: Bead proximity is the source of the signal in Alpha formats.)
Human His6-CBX7, sequence (O95931 11-69): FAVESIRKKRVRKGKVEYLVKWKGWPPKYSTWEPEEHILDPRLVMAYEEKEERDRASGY
Consider `CN(C)c1ccc(CCNC(=O)CC2SC(N/N=C/c3ccc(N4CCCC4)cc3)=NC2=O)cc1` (centres unmarked) [ACV-76], for which the IC50 – broadly, the concentration that inhibits the measured activity by half – is 3.76 µM.
`O=C(CC1S/C(=N/N=C/c2ccccn2)NC1=O)Nc1ccc(N2CCCC2)cc1` (centres unmarked) [ACV-15]: the IC50 worked out at 37.3 µM.
The same measure, in the same setting: to `O=C(COCc1cccnc1)N1CCN(C(=O)c2ccc(CCN3CCCC3)cc2)CC1` [ACV-56] belongs 64.1 µM.
Take `O=C(Cc1cnc(NC(=O)Nc2ccc(F)cc2)s1)Nc1ccc(N2CCCC2)cc1` [ACV-49]: the IC50 stood at 17.2 µM.
Same read-out and setting: to `COc1ccc(-c2ccc3nc(-c4ccco4)cc(C(=O)Nc4ccc(N5CCN(C)CC5)cc4)c3c2)cc1OC` [ACV-44] belongs 101 µM; to `O=C(Nc1ccc(N2CCCC2)cc1)c1ccc2nc(-c3ccc(O)c(O)c3O)c(NCc3ccccc3)n2c1` [ACV-3-142, 3-(benzylamino)-N-(4-(pyrrolidin-1-yl)phenyl)-2-(2,3,4-trihydroxyphenyl)imidazo[1,2-a]pyridine-6-carboxamide], 0.66 µM.
In the case of `COc1ccc(CC(=O)Nc2nc3cc(C(=O)NCCN4CCN(C)CC4)ccc3s2)cc1OC` [ACV-95], the IC50 was found to be 879 µM.
`O=C(CC1S/C(=N/N=C/c2ccc(O)c(O)c2O)NC1=O)Nc1ccc(N2CCCC2)cc1` (centres unmarked) [ACV-17(3)]: the 50% inhibitory concentration (IC50) was found to be 1.01 µM.
The same measure, in the same setting: to `O=C(NCCN1CCCC1)c1ccc(-c2csc(N/N=C/c3ccc(O)c(O)c3O)n2)cc1` [ACV-73] belongs 1.65 µM.
On to `CN(C)c1ccc(CC(CO)NC(=O)c2cc(-c3ccco3)nc3ccccc23)cc1` (centres unmarked) [ACV-12, N-(1-(4-(dimethylamino)phenyl)-3-hydroxypropan-2-yl)-2-(furan-2-yl)quinoline-4-carboxamide], for which the IC50 amounted to 6.1 µM.
On the same count and under the same terms, the value for `O=C(CC1S/C(=N/N=C/c2ccc(O)c(O)c2)NC1=O)Nc1ccc(N2CCCC2)cc1` (centres unmarked) [ACV-36 (2)] was 24.5 µM.
Same read-out and setting: the value for `CN1CCN(CCNC(=O)CC2SC(N3CCC(c4ccc(O)c(O)c4O)=N3)=NC2=O)CC1` (centres unmarked) [CBX-09, N-(2-(4-methylpiperazin-1-yl)ethyl)-2-(4-oxo-2-(3-(2,3,4-trihydroxyphenyl)-4,5-dihydro-1H-pyrazol-1-yl)-4,5-dihydrothiazol-5-yl)acetamide] was 53.4 µM; that for `NC(=S)N/N=C/c1ccc(O)c(O)c1O` [ACV-60] was 0.364 µM; that for `COc1cccc(C(=O)N2CCN(C(=O)COc3cccc(C)c3)CC2)c1OC` [ACV-72] was 124 µM.
For `O=C(CC1S/C(=N/N=C/c2ccc(Cl)nc2)NC1=O)Nc1ccc(N2CCCC2)cc1` (centres unmarked) [ACV-39], the IC50 amounted to 26.3 µM.
As to `CN(C)c1ccc(CCNC(=O)c2cc(-c3ccco3)nc3ccccc23)cc1` [ACV-08], the IC50 is 10.3 µM.
In the case of `COc1ccc(CC(=O)Nc2ncc(CC(=O)NCCN3CCN(C)CC3)s2)c(OC)c1OC` [ACV-82], the IC50 is 50.8 µM.
On the same count and under the same terms, to `O=C(CC1SC(N/N=C/c2ccc(O)c(O)c2O)=NC1=O)Nc1ccc(N2CCCCC2)cc1` (centres unmarked) [ACV-78] belongs 0.225 µM; to `COc1ccc(NC(=O)Cc2csc(NCCN3CCN(C)CC3)n2)c(OC)c1` [ACV-88], 246 µM.
In the case of `O=C(O)c1cc(-c2ccco2)nc2ccccc12` [ACV-07 (2)], the 50% inhibitory concentration (IC50) stood at 194 µM.
On to `CN(C)c1ccc(/C=N/N=C2\NC(=O)C(CC(=O)Nc3ccc(N4CCCC4)cc3)S2)cc1` (centres unmarked) [ACV-21], for which the IC50 came out at 3.69 µM.
Still for that read-out and setting: to `O=C(COCc1ccc(CN2CCCC2)cc1)N[C@H]1CCCN(Cc2cccnc2)C1=O` [ACV-80] belongs 2.86e-05 µM.
Same read-out and setting: to `O=C(Cc1cnc(NC(=O)Nc2cccc(Cc3ccccc3)c2)s1)Nc1ccc(N2CCCC2)cc1` [ACV-54] belongs 9.31 µM.
With `O=C(CC12SC(CCN3CCOCC3)(NC1=O)C1C(=O)N(c3ccc(N4CCCC4)cc3)C(=O)C12)Nc1ccc(N2CCCC2)cc1` (centres unmarked) [ACV-84], the half-inhibitory concentration (IC50) worked out at 7.26 µM.
Same read-out and setting: the value for `O=C(Cc1cnc(NC(=O)Nc2cc(F)c(F)cc2F)s1)Nc1ccc(N2CCCC2)cc1` [ACV-47] was 14400 µM.
On the same count and under the same terms, to `O=C(Nc1ccc(N2CCCC2)cc1)c1ccc(-c2csc(NCCc3cccnc3)n2)cc1` [ACV-99] belongs 16.4 µM.
Consider `O=C(CC1S/C(=N/N=C/c2ccc(C(=O)O)cc2)NC1=O)Nc1ccc(N2CCCC2)cc1` (centres unmarked) [ACV-16], for which the IC50 was determined as 6.79 µM.
On the same count and under the same terms, the value for `O=C(Cc1cnc(NC(=O)Nc2cccc(C(F)(F)F)c2)s1)Nc1ccc(N2CCCC2)cc1` [ACV-51] was 24.1 µM; that for `O=C(CC1S/C(=N/N=C/c2cccnc2)NC1=O)Nc1ccc(N2CCCC2)cc1` (centres unmarked) [ACV-14 (1)] was 4.41 µM; that for `COc1cc(NC(=O)Nc2ncc(CC(=O)Nc3ccc(N4CCCC4)cc3)s2)cc(OC)c1OC` [ACV-50] was 7.2 µM.
On the same count and under the same terms, the value for `c1cn2c(NC3CCCCC3)c(-c3ccc4[nH]ncc4c3)nc2cn1` [ACV-94] was 123 µM.
Still for that read-out and setting: the value for `O=C(N/N=C/c1c(O)cc(O)cc1O)c1cc(-c2ccco2)nc2ccccc12` [ACV-03] was 0.445 µM.
Turning to `CN(C)CCCOc1ccc(/C=N/NC(=O)c2cc(-c3ccco3)nc3ccccc23)cc1` [ACV-06], the IC50 came to 13.6 µM.
Still for that read-out and setting: the value for `CN(C)c1ccc(CCNC(=O)CC2SC(N/N=C/c3ccc(O)c(O)c3O)=NC2=O)cc1` (centres unmarked) [ACV-66] was 11.9 µM; that for `O=C(Nc1ccc(CCN2CCCC2)cc1)c1cc(-c2ccco2)nc2ccccc12` [ACV-13] was 69.5 µM.
The same measure, in the same setting: the value for `O=C(CC1S/C(=N/N=C/c2cccc(-c3ccc(C(=O)O)cc3)c2)NC1=O)Nc1ccc(N2CCCC2)cc1` (centres unmarked) [ACV-32] was 23.5 µM; that for `CN1CCN(CCNC(=O)c2ccc(-c3csc(N/N=C/c4ccc(O)c(O)c4O)n3)cc2)CC1` [ACV-75] was 0.0686 µM; that for `O=C(CC1SCC(C(=O)N/N=C/c2cccnc2)NC1=O)Nc1ccc(N2CCCC2)cc1` (centres unmarked) [ACV-24] was 65.3 µM.
On the same count and under the same terms, the value for `O=C(CC1S/C(=N/Cc2cccnc2)NC1=O)Nc1ccc(N2CCCC2)cc1` (centres unmarked) [ACV-31] was 404 µM.
In the case of `O=C(N/N=C/c1ccc(N2CCCC2)cc1)c1ccc(-c2csc(NCCc3cccnc3)n2)cc1` [ACV-92], the IC50 turned out to be 170 µM.
For the compound `O=C(CC1SC(N2CCC(c3ccc(O)c(O)c3O)=N2)=NC1=O)Nc1ccc(N2CCCC2)cc1` (centres unmarked) [CBX-08, 2-(4-oxo-2-(3-(2,3,4-trihydroxyphenyl)-4,5-dihydro-1H-pyrazol-1-yl)-4,5-dihydrothiazol-5-yl)-N-(4-(pyrrolidin-1-yl)phenyl)acetamide], the IC50 worked out at 0.835 µM.
On the same count and under the same terms, to `COc1ccc(-c2ccc3nc(-c4ccco4)cc(C(=O)NCCc4ccc(N(C)C)cc4)c3c2)cc1OC` [ACV-43] belongs 9100 µM; to `O=C(O)c1cc(-c2ccco2)nc2ccc(Br)cc12` [ACV-11], 8.51 µM; to `COc1ccc(NC(=O)CC2S/C(=N/N=C/c3cccnc3)NC2=O)cc1OC` (centres unmarked) [ACV-38], 165 µM.
On the same count and under the same terms, to `O=C(COCc1ccc(CN2CCCC2)cc1)N1CCN(C(=O)c2cccnc2)CC1` [ACV-57] belongs 336 µM; to `O=C(CC1S/C(=N/N=C/c2ccc(O)c(O)c2O)NC1=O)Nc1ccc(N2CCCC2)cc1` (centres unmarked) [ACV-17* (P1)], 2.36 µM.
Still for that read-out and setting: the value for `O=C(Cc1cnc(NC(=O)Nc2cccnc2)s1)Nc1ccc(CN2CCCC2)cc1` [ACV-55] was 23 µM.
As for `O=C(Cc1ccc(O)c(O)c1)NCc1nc(CC(=O)Nc2ccc(N3CCCC3)cc2)cs1` [ACV-96], the IC50 stood at 79.3 µM.
Still for that read-out and setting: to `O=C(CC1S/C(=N/N=C/c2ccc(O)c(O)c2O)NC1=O)Nc1ccc(N2CCCC2)cc1` (centres unmarked) [ACV-17(4)] belongs 1.56 µM; to `COc1cc(/C=N/NC(=O)C2CSC(CC(=O)Nc3ccc(N4CCCC4)cc3)C(=O)N2)ccc1O` (centres unmarked) [ACV-25], 60.9 µM; to `Oc1ccc(/C=N/Nc2nc(-c3ccc(N4CCCC4)cc3)cs2)c(O)c1O` [ACV-62], 0.861 µM.
Still for that read-out and setting: to `O=C(CC1S/C(=N/N=C/c2cncnc2)NC1=O)Nc1ccc(N2CCCC2)cc1` (centres unmarked) [ACV-28] belongs 44.6 µM; to `COc1cccc(/C=N/N=C2\NC(=O)C(CC(=O)Nc3ccc(N4CCCC4)cc3)S2)c1OC` (centres unmarked) [ACV-37], 114 µM; to `O=C(CC1S/C(=N/N=C/c2ccc(O)c(O)c2O)NC1=O)Nc1ccc(N2CCCC2)cc1` (centres unmarked) [ACV-17* (P2)], 3.37 µM.

Staying with this assay, now noted: cap scan of Scaffold 3, in words (FIG. 8).
For the compound `O=C(CC1S/C(=N\N=C\c2cccnc2)NC1=O)Nc1cccc(Cl)c1Cl` (centres unmarked) [JQI-III-263-A], the “activity in CBX AlphaScreen assay” value is given as “improved activity”.

Still in this assay, the particulars now being: versus Scaffold 2 (FIG. 7).
Take `O=C(N/N=C/c1c(O)cc(O)cc1O)c1cc(-c2ccco2)nc2ccccc12` [ACV-03]: the “improvement in binding affinity compared to the original scaffold” value was “more than 5 fold”.
